Test results taken from the supplement of paper PMC11061612.

Columns and labels:
Assay in all cases: Bliss excess, mean over the matrix (fraction); higher = more synergy
[1] = test system: U-118-MG (Low Grade Glioma)
In short: (§1)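 After 24 hours at 37°C and 5% CO2 in 1536-well plates, cells in DMEM/F12 or RPMI plus 10% FBS received two-drug dose matrices for 72 hours. Viability came from CellTiter-Glo 2.0 luminescence and was scaled as inhibition, anchored at 0 by vehicle wells and at 1 by blank wells. Combination Emax is taken as the second-highest inhibition in the matrix, and Bliss excess as the observed combination effect less EA + EB − EA·EB, with EA and EB the single-agent effects.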

[2] = test system: HCC-827 (Lung Adenocarcinoma)
In short: as §1

[3] = test system: YT (Other Blood Carcinomas)
In short: as §1

[4] = test system: HCT-116 (Colorectal Carcinoma)
In short: as §1

[5] = test system: SW948 (Colorectal Carcinoma)
In short: as §1

[6] = test system: RCC10RGB (Kidney Carcinoma)
In short: as §1

[7] = test system: DOK (Oral Cavity Carcinoma)
In short: as §1

[8] = test system: GDM-1 (Acute Myeloid Leukemia)
In short: as §1

[9] = test system: WSU-DLCL2 (B-Cell Non-Hodgkin's Lymphoma)
In short: as §1

[10] = test system: BICR78 (Oral Cavity Carcinoma)
In short: as §1

[11] = test system: HCC1143 (Breast Carcinoma)
In short: as §1

[12] = test system: CAL-39 (Other Solid Carcinomas)
In short: as §1

Saos-2 (Osteosarcoma) = test system: Saos-2 (Osteosarcoma)
In short: as §1

H4 (Low Grade Glioma) = test system: H4 (Low Grade Glioma)
In short: as §1

EW-22 (Ewing's Sarcoma) = test system: EW-22 (Ewing's Sarcoma)
In short: as §1

[13] = test system: TYK-nu (Ovarian Carcinoma)
In short: as §1

[14] = test system: P31-FUJ (Acute Myeloid Leukemia)
In short: as §1

[15] = test system: SKN-3 (Head and Neck Carcinoma)
In short: as §1

A172 (Glioblastoma) = test system: A172 (Glioblastoma)
In short: as §1

[16] = test system: 647-V (Bladder Carcinoma)
In short: as §1

With COc1nnc2ccc(N3CCC(c4ccc(OCCN5CCN(C)C(=O)[C@H]5C)cc4)CC3)nn12 [AZD5153] + Cn1cnc2c(F)c(Nc3ccc(Br)cc3Cl)c(C(=O)NOCCO)cc21 [Selumetinib] (first compound max 1 µM, 7x7, partner max 10 µM) the Bliss excess [1] was -0.016, the Bliss excess [2] was -0.0543 and the Bliss excess [3] was -0.0383. For the same molecule, the Bliss excess [4] was -0.029, the Bliss excess [5] was -0.0006 and the Bliss excess [6] was -0.114. For the same molecule, the Bliss excess [7] was -0.0297, the Bliss excess [8] was -0.0266 and the Bliss excess [9] was -0.0365. The Bliss excess [10] was -0.0454, the Bliss excess [11] was 0.0561 and the Bliss excess [12] was -0.0175. For the same molecule, the Bliss excess (Saos-2 (Osteosarcoma)) was -0.0452, the Bliss excess (H4 (Low Grade Glioma)) was -0.0184 and the Bliss excess (EW-22 (Ewing's Sarcoma)) was -0.0668. For the same molecule, the Bliss excess [13] was -0.044, the Bliss excess [14] was 0.0339 and the Bliss excess [15] was -0.019. The Bliss excess (A172 (Glioblastoma)) was -0.0304 and the Bliss excess [16] was 0.0604.
In the case of CC1(C)CCC(CN2CCN(c3ccc(C(=O)NS(=O)(=O)c4ccc(NCC5CCOCC5)c([N+](=O)[O-])c4)c(Oc4cnc5[nH]ccc5c4)c3)CC2)=C(c2ccc(Cl)cc2)C1 [Venetoclax] + COc1cc(Nc2ncc3c(n2)-c2ccc(Cl)cc2C(c2c(F)cccc2OC)=NC3)ccc1C(=O)O [Alisertib] (first compound max 1 µM, 7x7, partner max 10 µM), the Bliss excess [1] is reported as -0.013, the Bliss excess [2] is reported as -0.0795 and the Bliss excess [3] is reported as 0.1. For the same molecule, the Bliss excess [4] was -0.0043, the Bliss excess [5] was -0.0996 and the Bliss excess [6] was -0.0943. The Bliss excess [7] was 0.0114, the Bliss excess [8] was 0.0312 and the Bliss excess [9] was 0.238. The Bliss excess [10] was -0.0276, the Bliss excess [11] was 0.0244 and the Bliss excess [12] was -0.0989. It also gave a Bliss excess (Saos-2 (Osteosarcoma)) of 0.047, a Bliss excess (H4 (Low Grade Glioma)) of -0.0124 and a Bliss excess (EW-22 (Ewing's Sarcoma)) of 0.0313. For the same molecule, the Bliss excess [13] was -0.0415, the Bliss excess [14] was 0.0678 and the Bliss excess [15] was -0.0565. For the same molecule, the Bliss excess (A172 (Glioblastoma)) was -0.108 and the Bliss excess [16] was -0.0092.
CN(CCO)CC[C@H](CSc1ccccc1)Nc1ccc(S(=O)(=O)NC(=O)c2ccc(N3CCC([C@@H](O)c4ccccc4-c4ccc(Cl)cc4)CC3)cc2)cc1S(=O)(=O)C(F)(F)F [AZD4320] + C[C@@H](Nc1cc(F)cc(F)c1)c1cc(C(=O)N(C)C)cc2c(=O)cc(N3CCOCC3)oc12 [AZD8186] (first compound max 1 µM, 7x7, partner max 3 µM) showed a Bliss excess [1] of 0.0018, a Bliss excess [2] of -0.0294 and a Bliss excess [3] of 0.0327. It also gave a Bliss excess [4] of 0.0266, a Bliss excess [5] of -0.101 and a Bliss excess [6] of -0.0652. It also gave a Bliss excess [7] of -0.0195, a Bliss excess [8] of 0.0375 and a Bliss excess [9] of 0.0852. It also gave a Bliss excess [10] of -0.0594, a Bliss excess [11] of 0.0263 and a Bliss excess [12] of 0.0175. For the same molecule, the Bliss excess (Saos-2 (Osteosarcoma)) was -0.0258, the Bliss excess (H4 (Low Grade Glioma)) was 0.0521 and the Bliss excess (EW-22 (Ewing's Sarcoma)) was -0.0261. The Bliss excess [13] was -0.0224, the Bliss excess [14] was 0.019 and the Bliss excess [15] was 0.0112. For the same molecule, the Bliss excess (A172 (Glioblastoma)) was 0.0387 and the Bliss excess [16] was 0.0441.
Work on COc1nnc2ccc(N3CCC(c4ccc(OCCN5CCN(C)C(=O)[C@H]5C)cc4)CC3)nn12 [AZD5153] + C[C@@H]1COCCN1C2=NC(=NC(=C2)C3(CC3)[S@](=N)(=O)C)C4=C5C=CNC5=NC=C4 [AZD6738] (first compound max 1 µM, 7x7, partner max 10 µM) yielded a Bliss excess [1] of 0.0267, a Bliss excess [2] of 0.08 and a Bliss excess [3] of -0.0687. The Bliss excess [4] was -0.0049, the Bliss excess [5] was -0.0493 and the Bliss excess [6] was 0.0638. It also gave a Bliss excess [7] of 0.008, a Bliss excess [8] of 0.0146 and a Bliss excess [9] of -0.0467. It also gave a Bliss excess [10] of 0.0056, a Bliss excess [11] of -0.0036 and a Bliss excess [12] of -0.011. For the same molecule, the Bliss excess (Saos-2 (Osteosarcoma)) was 0.0391, the Bliss excess (H4 (Low Grade Glioma)) was -0.0081 and the Bliss excess (EW-22 (Ewing's Sarcoma)) was -0.0258. For the same molecule, the Bliss excess [13] was -0.0386, the Bliss excess [14] was -0.0685 and the Bliss excess [15] was 0.0128. For the same molecule, the Bliss excess (A172 (Glioblastoma)) was -0.0059 and the Bliss excess [16] was 0.029.
